Test results published in paper PMC6409716, “Centipede KCNQ Inhibitor SsTx Also Targets KV1.3” (Toxins, 2019).
Where two headings read alike, the source gives them in different places. Bridges are numbered along the chain shown (N, C = ends). Where no end group is shown, it is not given here.

Columns and labels:
KV1.3 = target: T1, KV1.3 (Homo sapiens, UniProt P22001); test: Whole-cell patch-clamp, KV1.3; assay type: cell-based; details: whole-cell recording, HEK293T and CHO cells transfected, 1000-ms depolarizing pulse of 10 mV from −80 mV, pH 7.3, room temperature, Hill fit
T1 construct: expressed in transfected cells; host or cells: HEK293T and CHO cells
Protocol: (§1) HEK293T and CHO cells were cultured as described in our previous work. The plasmid DNA (5μL, 1 μg/μL) of KV1.3 and KV7.4 channel was mixed with lipofectamine at a ratio of 1:1 in 200 μL Opti-MEM for 15–20 min, and the mixture was transferred to the cells plated in 20 mm cell culture dish for 12 h. After 24 h transfections, electrophysiological experiments were carried out at room temperature.
(§2) The cells expressing KV1.3 and KV7.4 were digested and plated on glass coverslips before current recording. The HEKA EPC10 amplifier (HEKA Elektronik, Ludwigshafen, Germany) was used to record currents in whole cells under the control of PATCHMASTER software (HEKA Elektronik, Ludwigshafen, Germany). A thin-wall borosilicate glass (A-M Systems) was used to pull patch pipettes and then the pipettes were fire-polished to 3–4 megohm. For whole-cell recordings, the capacity current was minimized by amplifier circuitry, and the series resistance was compensated by 30% to 65%. For KV1.3 and KV7.4 channel, intracellular solution contained 140 mM KCl, 10 mM EGTA, 2 mM MgCl2, 1 mM CaCl2, 10 mM HEPES (pH 7.3, adjusted with KOH), and extracellular solution contained 150 mM NaCl, 0.5 mM CaCl2, 5 mM KCl, 1.2 mM MgCl2, 10 mM HEPES (pH 7.3, adjusted with NaOH), and the current traces were tested by a 1000-ms depolarizing pulse of 10 mV from a holding voltage of −80 mV. The Hill logistic equation shown below was used to fit the Dose–response curves:y = 1 − (1 − fmax)/[1 + ([Tx]/IC50) n](1) where n is an empirical Hill coefficient, and fmax is the fraction of current resistant to inhibition at high toxin (Tx) concentration.

KV7.4 = target: T2, KV7.4 (Homo sapiens, UniProt P56696); test: Whole-cell patch-clamp, KV7.4; assay type: cell-based; details: whole-cell recording, HEK293T and CHO cells transfected; 1000-ms depolarizing pulse of 10 mV from −80 mV; pH 7.3; room temperature; Hill fit; n = 5 cells
T2 construct: expressed in transfected cells; host or cells: HEK293T and CHO cells
Protocol: as §1
as §2, with “The Hill logistic equation shown below was used to fit the Dose–response curves:y = 1 − (1 − fmax)/[1 + ([Tx]/IC50) n](1) where n is an empirical Hill coefficient, and fmax is the fraction of current resistant to inhibition at high toxin (Tx) concentration.” left out

[1] = ref [8]; cited from earlier work
Text: With over 3000 species, centipedes, arthropods of the class Chilopoda are widely distributed in both tropical and subtropical regions. Their first pair of legs have been modified into strong mandibles and venomous fangs called forcipules that play a critical role in defense and predation. Centipede stings occur frequently in areas, such as Hawaii, Brazil, Australia, Taiwan, and Japan, evoking an issue of social health care. Centipede toxins are composite mixtures, which are responsible for both local and systemic reactions. Recently, we have identified and characterized several pep ...

[2] = n = 5 cells, read-out: IC50 on KV1.3 (mutants)

T1 sequence (P22001 whole entry): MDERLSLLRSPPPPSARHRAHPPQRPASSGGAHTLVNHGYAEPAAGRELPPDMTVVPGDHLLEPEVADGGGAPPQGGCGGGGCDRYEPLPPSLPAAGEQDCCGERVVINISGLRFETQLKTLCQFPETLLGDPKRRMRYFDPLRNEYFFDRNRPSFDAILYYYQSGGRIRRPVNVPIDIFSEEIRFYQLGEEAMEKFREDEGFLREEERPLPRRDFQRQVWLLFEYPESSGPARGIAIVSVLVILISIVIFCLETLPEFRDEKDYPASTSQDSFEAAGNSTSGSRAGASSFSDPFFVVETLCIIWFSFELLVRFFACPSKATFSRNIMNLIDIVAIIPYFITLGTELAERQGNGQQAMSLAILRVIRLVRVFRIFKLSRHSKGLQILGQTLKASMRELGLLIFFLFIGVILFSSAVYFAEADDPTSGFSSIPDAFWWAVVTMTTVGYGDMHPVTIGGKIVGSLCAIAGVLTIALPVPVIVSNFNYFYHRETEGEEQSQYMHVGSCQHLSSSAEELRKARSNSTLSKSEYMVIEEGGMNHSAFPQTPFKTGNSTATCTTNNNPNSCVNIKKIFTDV
T2 sequence (P56696 whole entry): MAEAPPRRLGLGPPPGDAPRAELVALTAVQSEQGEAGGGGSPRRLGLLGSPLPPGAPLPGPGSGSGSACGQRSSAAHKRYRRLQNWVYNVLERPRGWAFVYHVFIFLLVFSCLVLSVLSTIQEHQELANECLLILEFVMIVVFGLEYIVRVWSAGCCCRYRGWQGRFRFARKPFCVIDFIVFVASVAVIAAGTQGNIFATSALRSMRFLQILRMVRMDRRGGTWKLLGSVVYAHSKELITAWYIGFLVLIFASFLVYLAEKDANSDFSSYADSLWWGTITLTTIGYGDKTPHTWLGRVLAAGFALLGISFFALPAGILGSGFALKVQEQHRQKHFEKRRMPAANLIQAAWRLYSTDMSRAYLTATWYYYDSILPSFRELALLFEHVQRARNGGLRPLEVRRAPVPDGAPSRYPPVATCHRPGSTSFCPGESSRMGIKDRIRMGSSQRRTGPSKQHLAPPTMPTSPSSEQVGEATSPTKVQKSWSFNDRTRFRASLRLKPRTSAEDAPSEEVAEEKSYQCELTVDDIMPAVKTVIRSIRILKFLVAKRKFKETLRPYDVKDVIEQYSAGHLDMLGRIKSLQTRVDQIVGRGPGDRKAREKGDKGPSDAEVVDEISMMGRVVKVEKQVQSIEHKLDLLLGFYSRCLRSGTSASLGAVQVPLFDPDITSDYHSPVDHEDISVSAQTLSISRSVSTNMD

Row | Sequence | IC50 (KV1.3; [2]) | IC50 (KV1.3; n = 10 cells, read-out: IC50 on KV1.3) | IC50 (KV7.4) | lethal toxicity [1]
1 | EVIKKDTPYKARKFPYKSECLKACATSFTGGDESRIQEGKPGFFKCTCYFTTG (disulfide 20-46, 24-48) [SsTx_K11A] | 507 ± 0.61 µM | – | – | –
2 | EVIKKDTPYKKAKFPYKSECLKACATSFTGGDESRIQEGKPGFFKCTCYFTTG (disulfide 20-46, 24-48) [SsTx_R12A] | 22.23 ± 0.22 µM | – | – | –
3 | EVIKKDTPYKKRAFPYKSECLKACATSFTGGDESRIQEGKPGFFKCTCYFTTG (disulfide 20-46, 24-48) [SsTx_K13A] | 526.1 ± 0.48 µM | – | – | –
4 | EVIKKDTPYKKRKFPYKSECLKACATSFTGGDESRIQEGKPGFFKCTCYFTTG (disulfide 20-46, 24-48) [SsTx, Ssm Spooky Toxin] | – | 5.26 µM | 2.8 ± 0.23 µM | potent lethal toxicity by causing severe vessels and respiratory disorders or seizures
